Key:
[1] = system: Oocyte; test: Inhibition of Influenza A Virus M2 proton channel expressed in Xenopus laevis oocytes at 100 uM after 2 mins by two-electrode […] assay; assay type: cell-based
[2] = Inhibition of Influenza A Virus M2 proton channel expressed in Xenopus laevis oocytes after 2 mins by two-electrode […] assay; assay type: cell-based; details: Oocyte

| SMILES | inhibition [1] | IC50 [2] |
| --- | --- | --- |
| NN1C(=O)CC2(CCCCC2)CC1=O | 29% | – |
| OC12CC3CC(CC(C3)C1)C2 | 85% | 20 µM |
| C1CCC2(CC1)CCNCC2 | 95% | 1 µM |
| NC1C2CC3CC(C2)CC1C3 (stereo not given) | 92% | – |
| O=C1CC2(CCCCC2)CC(=O)N1 | 35% | – |
| OC1CCC(C2CC3CCC2C3)CC1O (stereo not given) | 80% | – |
| CC12CC3(O)CC1(C)CC3(O)C2 | 40% | – |
| NC1Cc2ccccc2C1 | 6% | – |
| NC12CC3CC(C1)CC(CO)(C3)O2 | 13% | – |
| NC(=O)C12CC3CC(CC(C3)C1)C2 | 75% | – |
| C1CC2CCC1CNC2 | 75% | – |
| CC(C)(C)CC(C)(C)N | 87% | 21 µM |
| OC1C2C3CC4C2C(O)C2C1C3C42 (stereo not given) | 76% | – |
| NC(CO)C12CC3CC(CC(C3)C1)C2 (stereo not given) | 90% | 16 µM |
| OC1CC2C3CCC(C3)C2C1O (stereo not given) | 50% | – |
| CC1(O)C2CC3CC(C2)CC1C3 (stereo not given) | 86% | 14 µM |
| NC1CC2CC1C1CCCC21 (stereo not given) | 94% | 9 µM |
| N=C(N)NCC12CC3CCC(CC(C3)C1)C2 | 90% | – |
| NC12CC3CC(CC(C3)C1)C2 | 91% | – |
| OC1C2C3CC4C1C1C2CC3C41 (stereo not given) | 57% | – |

| SMILES | inhibition [1] | IC50 [2] |
| --- | --- | --- |
| NC12CC3CC(C1)CC(O)(C3)C2 | 5% | – |
| NC1C2C3CC4C1C1C2CC3C41 (stereo not given) | 96% | 8 µM |
| NC12CCC3CC(CC(C3)C1)C2 | 92% | 29 µM |
| N=C(N)NC(=N)NC12CC3CC(CC(C3)C1)C2 | 70% | – |
| O=C1C2CC3CC(C2)CC1C3 | 69% | 29 µM |
| CC(C)(C)c1ccc(CN)cc1 | 40% | – |
| CC1(C)C(N)C1(C)C | 28% | – |
| O=S(=O)(O)C12CC3CC(CC(C3)C1)C2 | 3% | – |
| N=C(N)C12CC3CC(CC(C3)C1)C2 | 95% | 4 µM |
| C1CC2CC1C1CNCC21 (stereo not given) | 74% | – |
| NC1C2C3CC4C2C(O)C2C1C3C42 (stereo not given) | 86% | 24 µM |
| NOC12CC3CC(CC(C3)C1)C2 | 87% | – |
| C1NC2CC3CC1CC(C3)C2 | 84% | – |
| NC1CCC2(CCCCC2)CC1 | 89% | – |
| N=C(N)NC12CC3CC(CC(C3)C1)C2 | 97% | 15 µM |
| NN1CCC2(CCCCC2)CC1 | 96% | 7 µM |
| N=C(NO)C12CC3CC(CC(C3)C1)C2 | 72% | – |
| NNC1CCC2(CCCCC2)CC1 | 79% | 31 µM |
| C1CC2CC1C1CNC21 (stereo not given) | 45% | – |
| NC12CC3CCC(CC(C3)C1)C2 | 81% | 24 µM |
